Assay results from patent US11286239B2, “Angiotensin II receptor 2 antagonist salt form and crystalline form, and preparation method therefor” (SHANDONG DANHONG PHARMACEUTICAL CO., LTD., priority 2018, dated 2022).

How the values were obtained:
Solid stability test = type: physicochemical
Procedure: […] The samples placed at the conditions of high temperature (60° C.) and high humidity (92.5% humidity, room temperature) were taken to test XRPD and purity on the 5th day and 10 days. Samples placed at high temperature and high humidity (40° C./75% humidity, 60° C./75% humidity) were taken to test XRPD and purity on the 10th day, 1 month, 2 months, and 3 months. The samples placed under light irradiation conditions were taken for testing when a total illuminance reached 1.2×10^6 Lux·hr. The test results are compared with the beginning test results of 0 day.

[1] = Hygroscopicity study by dynamic vapor sorption (DVS); type: physicochemical; conditions: 25° C. and 80% RH
Procedure: Test conditions: a sample (10-15 mg) is placed in DVS sample tray for testing.
Balance: dm/dt=0.01%/min (shortest: 10 min, longest: 180 min)
Drying: drying for 120 min at 0% RH
RH (%) test gradient: 10%
RH (%) test gradient range: 0%-90%-0%
The hygroscopicity property is evaluated and classified as follows: […]

[2] = 40° C., relative humidity 75%, open, 1M
[3] = 40° C., relative humidity 75%, open, 2M
[4] = 40° C., relative humidity 75%, open, 3M
[5] = 40° C., relative humidity 75%, open, 10 days
[6] = 60° C., relative humidity 75%, open, 1M
[7] = 60° C., relative humidity 75%, open, 2M
[8] = 60° C., relative humidity 75%, open, 3M
[9] = 60° C., relative humidity 75%, open, 10 days
[10] = High humidity (room temperature/relative humidity 92.5%, open), 5 days
[11] = High humidity (room temperature/relative humidity 92.5%, open), 10 days
[12] = High temperature (60° C., open), 5 days
[13] = High temperature (60° C., open), 10 days
[14] = Light irradiation (total illuminance of 1.2 × 10^6 Lux·hr/near ultraviolet 200 w·hr/m^2, open)

## COc1ccc2c(c1OCc1ccccc1)C[C@@H](C(=O)O)N(C(=O)[C@@H](OC1CCCC1)c1ccccc1)C2 [crystalline form “B”]
Solid stability test; 0 day
  Crystalline form (XRPD): Crystalline form “B”
  Purity: 99.89%
Solid stability test; [2]
  Crystalline form (XRPD): Crystalline form “B”
  Purity: 99.92%
Solid stability test; [3]
  Crystalline form (XRPD): Crystalline form “B”
  Purity: 99.87%
Solid stability test; [4]
  Crystalline form (XRPD): Crystalline form “B”
  Purity: 99.87%
Solid stability test; [5]
  Crystalline form (XRPD): Crystalline form “B”
  Purity: 99.93%
Solid stability test; [6]
  Crystalline form (XRPD): Crystalline form “B”
  Purity: 99.90%
Solid stability test; [7]
  Crystalline form (XRPD): Crystalline form “B”
  Purity: 99.78%
Solid stability test; [8]
  Crystalline form (XRPD): Crystalline form “B”
  Purity: 99.80%
Solid stability test; [9]
  Crystalline form (XRPD): Crystalline form “B”
  Purity: 99.92%
Solid stability test; [10]
  Crystalline form (XRPD): Crystalline form “B”
  Purity: 99.93%
Solid stability test; [11]
  Crystalline form (XRPD): Crystalline form “B”
  Purity: 99.92%
Solid stability test; [12]
  Crystalline form (XRPD): Crystalline form “B”
  Purity: 99.93%
Solid stability test; [13]
  Crystalline form (XRPD): Crystalline form “B”
  Purity: 99.93%
Solid stability test; [14]
  Crystalline form (XRPD): Crystalline form “B”
  Purity: 99.96%
Solid stability test; high temperature, high humidity, strong light and accelerated conditions
  Solid stability conclusion: good crystal stability and good chemical stability
[1]
  Classification of hygroscopicity: almost no hygroscopicity
  ΔW, weight gain caused by hygroscopicity: 0.05327%
